Biological target: T1, thrombin (Homo sapiens, UniProt P00734)
T1 construct: gene F2
Assay: thrombin generation assay in human plasma (fluorogenic Z-Gly-Gly-Arg-AMC, AUC); thrombin time prolonged

Structure (SMILES): Cn1c(CNc2ccc(C(=N)N)cc2)nc2cc(C(=O)N(CCC(=O)O[C@@H]3O[C@H](C(=O)O)[C@@H](O)[C@H](O)[C@H]3O)c3ccccn3)ccc21 [DABG, dabigatran acylglucuronide]
- IC50: 435 nM
